What is called IC50 is the concentration that inhibits the measured activity by half. Read a high IC50 as weaker potency in that assay.

The text below walks through data of ChEMBL document CHEMBL1158170, “Synthesis, characterization, antioxidant activity and DNA-binding studies of two rare earth(III) complexes with naringenin-2-hydroxy benzoyl hydrazone ligand” (Eur J Med Chem, 2008).

The nature of experiment [1]: Antioxidant activity at pH 7.4 by hydroxyl radical scavenging assay. The format is functional.
Experiment [2] concerns DNA. Nature of the experiment: Binding affinity to calf thymus DNA by electronic absorption spectroscopy. The class given is nucleic-acid assay. The settings on record: Bos taurus.
The test system of experiment [3] is DNA. Nature of the experiment: Binding affinity to calf thymus DNA by fluorescence spectroscopy. The format is nucleic-acid assay. Particulars: Bos taurus.

Regarding `OC[C@@H](O)[C@@H](O)[C@H](O)[C@H](O)CO` [MANNITOL], in experiment [1], it took 9.6 mM to reach half-maximal inhibition (IC50).
With `O=C(N/N=C1\CC(c2ccc(O)cc2)Oc2cc(O)cc(O)c21)c1ccccc1O` (stereo not drawn), the Kb with DNA [2] turned out to be 1.6 ×10⁴ /M. This compound came in with a Kq in the experiment with DNA [3] of 0.93 ×10⁴ /M.
